Measurements from patent publication US20260021061A1, “ARIADNE AND ANALOGS FOR THE TREATMENT OF NEUROLOGICAL AND NEUROMUSCLAR DISORDERS” (priority 2022, published 2026).

Tests used:
Cannabinoid CB2 = biological target: T1, Cannabinoid CB2 (Homo sapiens, UniProt P34972); test: SafetyScreen44 217100; assay type: binding; details: 10 μM; [3H]WIN-55, 212-2; recombinant
T1 construct: Eurofins-Panlabs (contract screen) 217100
Method: (§1) A broad screen of 44 molecular targets (SafetyScreen44, Eurofins-Panlabs) for Ariadne were performed, which includes G protein-coupled receptors, steroid nuclear receptors, ion channels, neurotransmitter transporters, and metabolic and signaling enzymes. Only two molecular targets, 5-HT2A and 5-HT2B receptors, emerged above the positive hit threshold, defined as 50% displacement of standard radioligands by 10 uM concentration of Ariadne (FIG. 1b, and Table 1).
(§2) For species, “H”=human, “R”=rat. Test compound screened at all targets at concentration of 10 μM.

Dopamine D2S = biological target: T2, Dopamine D2S (Homo sapiens, UniProt P14416); test: SafetyScreen44 219700; assay type: binding; details: 10 μM; [3H]Spiperone; recombinant
T2 construct: Eurofins-Panlabs (contract screen) 219700
T2 sequence (P14416 1-414 isoform P14416-2): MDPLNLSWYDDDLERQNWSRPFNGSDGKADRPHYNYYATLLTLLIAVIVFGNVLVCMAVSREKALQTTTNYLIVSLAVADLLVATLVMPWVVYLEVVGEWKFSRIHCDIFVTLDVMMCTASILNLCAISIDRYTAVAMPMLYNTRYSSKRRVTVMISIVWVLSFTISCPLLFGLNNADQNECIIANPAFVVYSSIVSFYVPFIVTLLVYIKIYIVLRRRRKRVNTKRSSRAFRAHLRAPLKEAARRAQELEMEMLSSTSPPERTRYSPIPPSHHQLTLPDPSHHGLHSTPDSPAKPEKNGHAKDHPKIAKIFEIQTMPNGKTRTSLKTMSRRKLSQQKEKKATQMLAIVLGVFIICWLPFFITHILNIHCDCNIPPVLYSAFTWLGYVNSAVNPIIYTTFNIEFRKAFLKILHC
Method: as §1, §2

Glutamate, NMDA, Agonism = test: SafetyScreen44 232810; assay type: binding, rat; details: 10 μM; [3H]CGP-39653; cerebral cortex
Method: as §1, §2

[1] = biological target: T3, Serotonin (5-Hydroxytryptamine) 5-HT2A (Homo sapiens, UniProt P28223); test: SafetyScreen44 271650; assay type: binding; details: 10 μM, [3H]Ketanserin, recombinant
T3 construct: purchased Eurofins-Panlabs (contract screen SafetyScreen44) assay ID 271650
T3 sequence (P28223 whole entry): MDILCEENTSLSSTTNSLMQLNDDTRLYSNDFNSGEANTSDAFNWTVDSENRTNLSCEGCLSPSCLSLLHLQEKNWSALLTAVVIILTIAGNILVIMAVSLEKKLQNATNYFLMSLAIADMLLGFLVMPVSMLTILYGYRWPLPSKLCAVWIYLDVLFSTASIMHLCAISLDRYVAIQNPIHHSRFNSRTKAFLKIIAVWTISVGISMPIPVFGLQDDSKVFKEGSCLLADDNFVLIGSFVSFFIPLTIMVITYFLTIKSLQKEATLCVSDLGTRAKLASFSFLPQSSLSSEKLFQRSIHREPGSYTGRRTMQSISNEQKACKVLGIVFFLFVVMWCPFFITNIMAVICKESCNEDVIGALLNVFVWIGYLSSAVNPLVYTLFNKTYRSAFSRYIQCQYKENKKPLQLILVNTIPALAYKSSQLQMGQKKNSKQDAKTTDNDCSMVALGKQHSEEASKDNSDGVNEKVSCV
Method: as §1, §2

Sodium Channel, Site 2 = test: SafetyScreen44 279510; assay type: binding, human; details: 10 μM; [3H]Batrachotoxinin; recombinant
Method: as §1, §2

[2] = biological target: T4, Nicotinic Acetylcholine alpha4beta2, Cytisine (Homo sapiens, UniProt P17787+P43681); test: SafetyScreen44 299031; assay type: binding; details: 10 μM; [3H]Cytisine; recombinant
T4 construct: purchased Eurofins-Panlabs (contract screen SafetyScreen44) assay ID 299031
T4 sequence (P43681 29-627 limits assumed): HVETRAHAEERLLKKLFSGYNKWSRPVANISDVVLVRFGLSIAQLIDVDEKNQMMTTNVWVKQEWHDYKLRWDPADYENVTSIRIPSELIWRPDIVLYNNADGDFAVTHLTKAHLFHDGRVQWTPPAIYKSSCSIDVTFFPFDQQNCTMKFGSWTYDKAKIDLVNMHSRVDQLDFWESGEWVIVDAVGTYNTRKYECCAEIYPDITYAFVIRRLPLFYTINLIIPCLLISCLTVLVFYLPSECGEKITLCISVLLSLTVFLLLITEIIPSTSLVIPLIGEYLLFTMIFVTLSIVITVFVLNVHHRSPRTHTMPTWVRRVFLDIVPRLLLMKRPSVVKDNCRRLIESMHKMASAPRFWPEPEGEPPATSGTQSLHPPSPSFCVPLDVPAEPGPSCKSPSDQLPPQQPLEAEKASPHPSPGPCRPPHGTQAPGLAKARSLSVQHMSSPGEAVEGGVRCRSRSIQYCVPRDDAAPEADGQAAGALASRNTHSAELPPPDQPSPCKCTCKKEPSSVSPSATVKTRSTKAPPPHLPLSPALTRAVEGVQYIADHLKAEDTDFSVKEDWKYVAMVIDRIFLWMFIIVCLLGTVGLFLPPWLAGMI
T4 sequence (P17787 26-502): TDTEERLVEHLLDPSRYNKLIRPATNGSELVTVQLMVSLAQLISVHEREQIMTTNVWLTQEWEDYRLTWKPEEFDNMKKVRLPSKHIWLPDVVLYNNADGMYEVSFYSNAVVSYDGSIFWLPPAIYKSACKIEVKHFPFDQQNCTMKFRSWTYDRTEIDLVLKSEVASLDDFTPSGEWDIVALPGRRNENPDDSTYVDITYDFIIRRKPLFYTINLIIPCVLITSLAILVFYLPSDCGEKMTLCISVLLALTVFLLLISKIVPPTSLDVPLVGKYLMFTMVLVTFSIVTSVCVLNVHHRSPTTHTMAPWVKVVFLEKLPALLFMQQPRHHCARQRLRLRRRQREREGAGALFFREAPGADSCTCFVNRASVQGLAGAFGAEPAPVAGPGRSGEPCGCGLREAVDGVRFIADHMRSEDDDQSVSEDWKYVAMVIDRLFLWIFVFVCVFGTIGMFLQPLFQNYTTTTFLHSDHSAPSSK
Method: as §1, §2

humans = details: in vivo; cited from earlier work
5-HT2B = 5-HT2B (Homo sapiens, UniProt P41595); test: G protein (Gq) dissociation BRET assay; details: for Emax: read-out: Emax, agonist activity
Chain of 5-HT2B (P41595 whole entry): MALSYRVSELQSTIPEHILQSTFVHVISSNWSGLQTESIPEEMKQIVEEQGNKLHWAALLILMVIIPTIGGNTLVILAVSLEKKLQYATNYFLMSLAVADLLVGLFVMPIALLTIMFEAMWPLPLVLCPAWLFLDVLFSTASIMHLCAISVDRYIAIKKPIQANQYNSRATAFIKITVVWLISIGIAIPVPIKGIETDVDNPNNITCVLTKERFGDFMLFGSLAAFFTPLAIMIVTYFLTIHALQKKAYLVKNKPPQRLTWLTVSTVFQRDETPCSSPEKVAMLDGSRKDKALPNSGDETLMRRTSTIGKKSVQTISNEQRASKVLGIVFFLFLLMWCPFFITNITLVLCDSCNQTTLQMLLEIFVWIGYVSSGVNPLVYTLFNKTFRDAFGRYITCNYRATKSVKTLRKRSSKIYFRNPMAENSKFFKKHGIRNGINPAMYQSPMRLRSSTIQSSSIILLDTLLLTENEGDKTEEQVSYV
Method: (§3) All BRET assays were conducted using BRET2 in HEK293T cells (ATCC CRL-11268; mycoplasma-free), which were subcultured in high-glucose DMEM (VWR) supplemented with 10% FBS (Life Technologies).
(§4) Constructs in G protein-dissociation BRET assays were derived from the codon-optimized Tango pcDNA3.1 library (Addgene) with V2tail/TEV/tTA encoding regions deleted to yield “de-Tango” constructs. […] All Gα-Rluc8, Beta, and GFP2-γ constructs were derived from the TRUPATH pcDNA5/FRT/TO library (Addgene).
(§5) Approximately 48 hours before assays, cells were transfected using a reverse transfection method and plated in 1% dFBS at an approximate density of 15,000 cells per well into poly-L-lysine-coated 384-well white assay plates (Grenier Bio-One). For G protein-dissociation assays, cells were transfected in a 1:1:1:1 ratio of receptor: Gα-Rluc8: Beta: GFP2-γ constructs. […] All transfections were prepared in Opti-MEM (Invitrogen) and used a 3:1 ratio of TransIT-2020 (Mirus) uL:ug total DNA.
(§6) On the day of the assay, plates were decanted and 20 uL of drug buffer per well (1×HBSS, 20 mM HEPES, pH 7.4) was added using a Multidrop (ThermoFisher Scientific), and plates were allowed to equilibrate at 37° C. in a humidified incubator before receiving drug stimulation. Drug dilutions of all compounds were performed in McCorvy buffer (1×HBSS, 20 mM HEPES, pH 7.4, supplemented with 0.3% BSA fatty acid free (GoldBio), and 0.03% ascorbic acid). […] Next, plates were incubated at 37° C. in a humidified incubator for 60 minutes or specified time point. Before reading, addition of coelenterazine 400a (5 uM final concentration; Nanolight Technology) was performed by the [sequence]. Immediately after, plates were read at 400 nm Rluc and fluorescent GFP2 emission at 510 nm for BRET2 at 0.8 second per well using a PheraStarFSX (BMB Lab Tech).
(§7) The BRET ratios of 510/400 luminescence were calculated per well and were plotted as a function of drug concentration using Graphpad Prism 5 or 9 (Graphpad Software Inc., San Diego, CA). Data were normalized to % positive control stimulation and analyzed using nonlinear regression “log(agonist) vs. response” to yield Emax and EC50 parameter estimates.

5-HT2C receptor = biological target: T5, 5-HT2C receptor (Homo sapiens, UniProt P28335); test: G protein (Gq) dissociation BRET assay; details: for Emax: read-out: Emax, agonist activity
T5 sequence (P28335 33-458): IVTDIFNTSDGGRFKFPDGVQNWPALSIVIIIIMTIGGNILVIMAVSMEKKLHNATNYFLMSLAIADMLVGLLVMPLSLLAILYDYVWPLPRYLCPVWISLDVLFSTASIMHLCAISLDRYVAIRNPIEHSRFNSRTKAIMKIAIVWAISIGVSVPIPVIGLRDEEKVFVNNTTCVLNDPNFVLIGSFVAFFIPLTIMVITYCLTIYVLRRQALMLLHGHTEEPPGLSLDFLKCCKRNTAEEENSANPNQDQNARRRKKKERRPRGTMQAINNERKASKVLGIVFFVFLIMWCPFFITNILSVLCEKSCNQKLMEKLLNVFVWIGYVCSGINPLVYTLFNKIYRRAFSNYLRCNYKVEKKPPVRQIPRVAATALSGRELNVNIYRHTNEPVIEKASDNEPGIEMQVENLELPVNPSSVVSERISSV
Method: as §3, §4, §5, §6, §7

5-HT4 receptor = 5-HT4 receptor (Homo sapiens, UniProt Q13639); test: 5-HTome G protein activation BRET assay; details: 5-HTome screen
Chain of 5-HT4 receptor (Q13639 whole entry): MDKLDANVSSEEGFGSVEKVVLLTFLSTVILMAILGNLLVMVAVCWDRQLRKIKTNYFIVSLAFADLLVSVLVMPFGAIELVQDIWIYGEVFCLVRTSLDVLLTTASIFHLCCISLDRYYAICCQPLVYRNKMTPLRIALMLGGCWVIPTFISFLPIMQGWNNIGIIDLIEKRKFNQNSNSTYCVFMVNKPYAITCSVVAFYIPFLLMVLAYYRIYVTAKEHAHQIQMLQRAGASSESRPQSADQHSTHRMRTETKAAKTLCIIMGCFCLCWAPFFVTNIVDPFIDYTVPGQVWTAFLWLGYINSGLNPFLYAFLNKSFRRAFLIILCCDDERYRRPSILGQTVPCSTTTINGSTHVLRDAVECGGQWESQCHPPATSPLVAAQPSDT
Method: as §3
(§8) Constructs in G protein-dissociation BRET assays were derived from the codon-optimized Tango pcDNA3.1 library (Addgene) with V2tail/TEV/tTA encoding regions deleted to yield “de-Tango” constructs. […] All Gα-Rluc8, Beta, and GFP2-γ constructs were derived from the TRUPATH pcDNA5/FRT/TO library (Addgene). […]
(§9) On the day of the assay, plates were decanted and 20 uL of drug buffer per well (1×HBSS, 20 mM HEPES, pH 7.4) was added using a Multidrop (ThermoFisher Scientific), and plates were allowed to equilibrate at 37° C. in a humidified incubator before receiving drug stimulation. […] Before reading, addition of coelenterazine 400a (5 uM final concentration; Nanolight Technology) was performed by the [sequence]. Immediately after, plates were read at 400 nm Rluc and fluorescent GFP2 emission at 510 nm for BRET2 at 0.8 second per well using a PheraStarFSX (BMB Lab Tech).
(§10) The BRET ratios of 510/400 luminescence were calculated per well and were plotted as a function of drug concentration using Graphpad Prism 5 or 9 (Graphpad Software Inc., San Diego, CA). […]

5-HT1E receptor = 5-HT1E receptor (Homo sapiens, UniProt P28566); test: 5-HTome G protein activation BRET assay
Chain of 5-HT1E receptor (P28566 whole entry): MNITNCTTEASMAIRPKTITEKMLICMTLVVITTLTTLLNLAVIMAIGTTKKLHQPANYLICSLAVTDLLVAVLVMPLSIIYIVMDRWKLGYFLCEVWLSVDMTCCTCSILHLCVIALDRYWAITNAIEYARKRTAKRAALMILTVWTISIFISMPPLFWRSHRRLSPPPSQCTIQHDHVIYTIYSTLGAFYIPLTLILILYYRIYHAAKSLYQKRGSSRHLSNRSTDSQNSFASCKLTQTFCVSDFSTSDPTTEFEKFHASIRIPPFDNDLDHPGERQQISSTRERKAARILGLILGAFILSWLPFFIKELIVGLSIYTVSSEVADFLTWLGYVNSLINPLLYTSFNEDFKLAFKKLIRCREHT
Method: as §3, §4, §5
On the day of the assay, plates were decanted and 20 uL of drug buffer per well (1×HBSS, 20 mM HEPES, pH 7.4) was added using a Multidrop (ThermoFisher Scientific), and plates were allowed to equilibrate at 37° C. in a humidified incubator before receiving drug stimulation. Drug dilutions of all compounds were performed in McCorvy buffer (1×HBSS, 20 mM HEPES, pH 7.4, supplemented with 0.3% BSA fatty acid free (GoldBio), and 0.03% ascorbic acid). […] Before reading, addition of coelenterazine 400a (5 uM final concentration; Nanolight Technology) was performed by the [sequence]. Immediately after, plates were read at 400 nm Rluc and fluorescent GFP2 emission at 510 nm for BRET2 at 0.8 second per well using a PheraStarFSX (BMB Lab Tech).
as §7

5-HT2A = 5-HT2A (Homo sapiens, UniProt P28223); test: Calcium flux assay; assay type: cell-based
Chain of 5-HT2A (P28223 whole entry): as the sequence (P28223 whole entry) above
Method: Therefore, an orthogonal assay measuring calcium flux was also performed for the 5-HT2 receptors (Klein et al., 2020).

[3] = test system: auxilin knockout (KO) mice; test: Balance beam test in auxilin KO mouse model of Parkinson's Disease; assay type: in vivo; details: Aux-KO mice 9-12 months; 10 mg/kg intraperitoneal; 15 to 30 minutes after treatment
Source text: R-Ariadne ameliorates motor abnormalities in a mouse model of Parkinson's Disease. In the 1978 patent from the Bristol Laboratories, the inventors noted complete remission of Parkinson's symptoms in two patients (Partyka el al., U.S. Pat. No. 4,105,695, 1978). To address and examine these claims via reverse translation in mice, we used a novel model of PD based on auxilin knockout (KO) mice (Vidyadhara et al., 2022). Auxilin is a clathrin uncoating protein that participates in clathrin mediated endocytosis of synaptic vesicles (SV), enabling SV recycling and neurotransmission (Vidyadhara et al., 2022). Loss-of-function mutations in auxilin (DNAJC6/PARK19) cause PD. Auxilin KO mice display cardinal features of PD such as progressive motor deficits, nigral dopaminergic neuronal loss, α-synuclein pathology, and neuroinflammation. 9-12 month old Aux-KO mice were previously shown to respond to L-DOPA treatment, which ameliorated PD-like motor abnormalities (Vidyadhara et al., 2022). […] The balance beam test evaluates fine motor skills such as ability to walk on a raised narrow beam to reach a safety box, measured as a number of runs/minute and time taken to cross the beam (FIGS. 9-10). […]

patients = details: cited from earlier work
5-HT1F receptor = 5-HT1F receptor (Homo sapiens, UniProt P30939); test: 5-HTome G protein activation BRET assay
Chain of 5-HT1F receptor (P30939 whole entry): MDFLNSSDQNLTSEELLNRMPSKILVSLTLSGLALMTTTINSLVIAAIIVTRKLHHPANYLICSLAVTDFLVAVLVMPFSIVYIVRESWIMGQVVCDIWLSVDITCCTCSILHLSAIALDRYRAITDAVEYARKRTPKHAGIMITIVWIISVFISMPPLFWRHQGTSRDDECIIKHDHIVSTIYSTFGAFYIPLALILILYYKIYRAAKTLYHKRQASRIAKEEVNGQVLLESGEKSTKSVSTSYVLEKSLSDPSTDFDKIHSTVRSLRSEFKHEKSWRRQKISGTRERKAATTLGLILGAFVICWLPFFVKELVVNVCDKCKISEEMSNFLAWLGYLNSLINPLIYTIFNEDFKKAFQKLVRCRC
Method: as §3, §8, §9, §10

[4] = EC50, agonist activity, 5-HTome screen
[5] = EC50, Gq dissociation, Gq dissociation BRET

T1 sequence (P34972 whole entry): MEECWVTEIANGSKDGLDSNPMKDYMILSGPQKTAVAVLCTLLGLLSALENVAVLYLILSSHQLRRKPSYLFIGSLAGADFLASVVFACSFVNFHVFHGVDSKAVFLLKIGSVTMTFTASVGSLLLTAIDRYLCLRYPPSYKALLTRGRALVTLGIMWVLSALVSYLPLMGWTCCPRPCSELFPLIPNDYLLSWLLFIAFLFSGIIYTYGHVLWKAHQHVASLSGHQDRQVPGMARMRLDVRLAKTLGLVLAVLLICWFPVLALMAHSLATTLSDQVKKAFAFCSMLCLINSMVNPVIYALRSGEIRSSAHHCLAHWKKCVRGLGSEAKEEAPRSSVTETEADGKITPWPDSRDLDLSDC

## CCC(N)Cc1cc(OC)c(C)cc1OC (racemic) [Compound 32, 1-(2,5-dimethoxy-4-methylphenyl)butan-2-amine]
Cannabinoid CB2
  % Response: −7%
Dopamine D2S
  % Response: 1%
Glutamate, NMDA, Agonism
  % Response: −5%
[1]; listed as (rac)-Ariadne
  % Response: more than 50%
[1]; listed as Ariadne
  % Response: 72%
Sodium Channel, Site 2
  % Response: 47%
[2]
  % Response: −31%
humans
  hallucinogenic effects in humans: lack the hallucinogenic effects
5-HT2B; [4]
  EC50: < 1000 nM
5-HT2B
  Emax: > 70%
5-HT2C receptor; [4]
  EC50: < 1000 nM
5-HT2C receptor
  Emax: > 70%
5-HT4 receptor
  agonist activity: Little to no agonist activity
5-HT1E receptor; also 5-HT1F
  selectivity of 5-HT2 over 5-HT1E and 5-HT1F receptors: 0.5-1 log

## CC[C@@H](N)Cc1cc(OC)c(C)cc1OC [(R)-Ariadne]
5-HT2A
  EC50: 30 nM
5-HT2A; read-out: Emax relative to 5-HT, calcium flux
  Emax: 96%
[3]
  number of balance beam runs per minute: significantly higher and comparable to WT mice
patients; 100 mg per day
  symptoms in subjects with Parkinson's disease: nearly complete remission of symptoms
patients; 50-100 mg per day
  psychotic symptoms in schizophrenia and bipolar disorder: rapid remission of psychotic symptoms
patients; up to and beyond 100 mg per day, including patients with psychosis
  hallucinogenic effects: lack of hallucinogenic effects
5-HT2B; [5]
  EC50: 739 nM
5-HT2B; [4]
  EC50: < 1000 nM
5-HT2B
  Emax: > 70%
5-HT2C receptor; [5]
  EC50: 249 nM
5-HT2C receptor; [4]
  EC50: < 1000 nM
5-HT2C receptor
  Emax: > 70%
5-HT4 receptor
  agonist activity: Little to no agonist activity
5-HT1E receptor
  EC50: ~200 nM
  Emax: > 70%
5-HT1F receptor
  EC50: ~5 µM
  Emax: > 70%
